Test results as given in patent US9808441B2, “Dietary supplement containing alkaline electrolyte buffers” (priority 1999, dated 2017).

assay: pH of dietary/therapeutic supplements, alkaline minerals and supplement compositions; assay type: physicochemical; settings: dietary or therapeutic supplement prior to combination with alkaline minerals (table)
Excerpt: It is noted that wherein pH is referred to for a dry or non-liquid material, it means where the material is mixed with a liquid, such as in the body of a user.
When an individual takes any one of these supplements with the meal, the body begins the digestion process of the supplement and the meal and the body begins to try to eliminate resulting waste due to needed raise in pH and to buffer the system. The body will utilize any buffer that can be found within the food, supplement, and after that will begin to draw the alkaline minerals from within the system itself.

| pH | Molecule |
| --- | --- |
| 5.5 | N[C@H]1C(O)O[C@H](CO)[C@@H](O)[C@@H]1O (stereo partly drawn) [Glucosamine] |
| 6.1 | Vitamin E |

The next lines start with the molecule.

| Molecule | pH |
| --- | --- |
| O=C1O[C@H]([C@@H](O)CO)C(O)=C1O [Ascorbic Acid] | 3.23 |
| O=C(O)c1cccnc1 [Niacin] | 3.4 |
| [Zn] [Zinc] | 3.5 |

same assay, conditions: lower value, 'and up depending upon the form' of the mineral

| pH of alkaline mineral | Molecule |
| --- | --- |
| ≥ 7.20 | [Mg+2] [magnesium] |
| ≥ 9.69 | [K+] [potassium] |

| Molecule | pH of alkaline mineral |
| --- | --- |
| [Ca+2] [calcium] | ≥ 8.28 |

same assay, conditions: supplement or ingredient alone, without alkaline electrolytes (text; typical/normal value)

| pH | Molecule |
| --- | --- |
| about 3.23 | O=C1O[C@H]([C@@H](O)CO)C(O)=C1O [Ascorbic Acid] |
